Key:
[1] = test system: human endothelial cells; experiment: Filipin staining of cholesterol in itraconazole-induced NPC-like phenotype; type: cell-based
Description: Itraconazole, an anti-fungal agent, interferes with cholesterol trafficking and induces an NPC-like phenotype in human endothelial cells. Itraconazole (200 nM) was administered in two experiments with 100 nM GEX1A and 10 nM GEX1A, respectively. Filipin is used as a histochemical stain to visualize cholesterol in the cell line.

[2] = test system: NPC1-mutant human fibroblasts (GM03123); experiment: Filipin fluorescent imaging of intracellular cholesterol in NPC1-mutant human fibroblasts; type: cell-based
Description: GEX1A was evaluated for its ability to lower intracellular cholesterol levels in NPC1-mutant human fibroblasts (GM03123) through a previously described fluorescent imaging method (Pipalia et al., Automated microscopy screening for compounds that partially revert cholesterol accumulation in Niemann-Pick C cells. J. Lipid Res. (2006) 47: 284-301.).
Compounds described herein were evaluated for their ability to lower intracellular cholesterol levels in NPC1-mutant human fibroblasts (GM03123) by the fluorescent imaging methods of Pipalia and coworkers.

Structure (SMILES) | amount of cholesterol in cell line (filipin stain) ([1]; 10 nM GEX1A with itraconazole 200 nM) | amount of cholesterol in cell line (filipin stain) ([1]; 100 nM GEX1A with itraconazole 200 nM) | IC50 ([1]; Homo sapiens, Endothelial cell, filipin cholesterol staining, itraconazole 200 nM) [nM] | correction of the NPC1 phenotype (filipin staining in the cell) ([2]; GM03123 cells, fluorescent imaging, FIG. 2) | potency in the classic filipin assay relative to HDAC inhibitors ([2]; NPC cells, preliminary studies) | correction of the NPC1 phenotype ([2]; 10 nM to 100 nM, time points of 24-72 hours, postulated)
CO[C@H]([C@@H](C)[C@H]1OC1(C)C[C@H](C)/C=C/C=C(\C)[C@H]1O[C@@H](CC(=O)O)CC[C@@H]1C)[C@@H](C)O (stereo partly drawn) [GEX1A] | significant decrease | significant decrease | 6 | correction of the NPC1 phenotype | equipotent to HDAC inhibitors | –
CC[C@H](O)[C@@H](C)[C@H]1O[C@@H]1C[C@H](C)/C=C/C=C(\C)[C@H]1OC(=O)C[C@H](O)CC[C@@](C)(O)[C@@H](OC(C)=O)/C=C/[C@@H]1C [Pladienolide, pladienolide B] | – | – | – | – | – | significant correction of the NPC1 phenotype

From patent US9193715B2, “Regulation of cholesterol homeostasis” (University of Notre Dam du Lac, priority 2012, dated 2015)
